{"source": "patent US12157728B2", "about": "“Targeting of endoplasmic reticulum dysfunction and protein folding stress to treat neurological conditions” (ALS Therapy Development Institute, priority 2018, dated 2024)", "origin": "cited, not measured here", "key": {"[1]": {"test": "not given", "remark": "listed apart in the source"}, "[2]": {"conditions": "in vivo"}, "[3]": {"test_system": "ER stress-mediated apoptosis", "conditions": "induced by tunicamycin"}, "[4]": {"test_system": "β-amyloid-induced neuronal death"}, "[5]": {"test_system": "GADD34/protein phosphatase 1 (PP1)"}}, "note": "Structures can show the parent of a compound that is named as a salt."}
{"smiles": "CCCCCCCCc1ccc(CCC(N)(CO)CO)cc1", "note": "[Fingolimod hydrochloride]", "values": [{"measurement": "solubility in 0.9% saline and aqueous buffers", "setting": "0.9% saline and aqueous buffers at or below pH 2.0", "result": "soluble"}, {"measurement": "solubility in aqueous buffers", "setting": "aqueous buffers at or above pH 3.0", "result": "very slightly soluble or practically insoluble"}, {"measurement": "solubility in water", "setting": "water", "result": "> 10", "unit": "%"}]}
{"smiles": "O=C(/C=C/c1ccccc1)NC(NC(=S)Nc1cccc2cccnc12)C(Cl)(Cl)Cl", "note": "(centres unmarked) [Salubrinal, N-(2,2,2-trichloro-1-(3-(quinolin-8-yl)thioureido)ethyl)cinnamamide]", "values": [{"measurement": "solubility in aqueous solutions", "setting": "[1]", "result": "low solubility"}, {"measurement": "clearance", "setting": "[2]", "result": "rapid clearance"}, {"measurement": "ER stress-mediated apoptosis", "setting": "[3]", "result": "inhibit ER stress-mediated apoptosis"}, {"measurement": "motor neuron degeneration", "setting": "SOD1 mice", "result": "slowed motor neuron degeneration"}, {"measurement": "survival", "setting": "SOD1 mice", "result": "extended survival"}, {"measurement": "β-amyloid-induced neuronal death and microglial activation", "setting": "[4]", "result": "attenuate β-amyloid-induced neuronal death and microglial activation"}, {"measurement": "cell death induced by α-synuclein", "setting": "PC12 cells", "result": "protected PC12 cells from cell death"}, {"measurement": "eIF2α dephosphorylation via GADD34/PP1 complex", "setting": "[5]", "result": "prevent eIF2α dephosphorylation"}]}
